Experimental data published in paper PMC6364417, “Kinase inhibitor library screening identifies synergistic drug combinations effective in sensitive and resistant melanoma cells” (Journal of Experimental & Clinical Cancer Research : CR, 2019).

Columns and labels:
Experiment in all cases: Kinase inhibitor library screening, PrestoBlue cell viability, 1 or 10 μM, 72 h
[1] = tested on: 501Mel cells (parental); conditions: 72 h; for cell viability (kinase inhibitor library screening): 501Mel Parental
Method in brief: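 Normalised to untreated controls, viability percentages came from PrestoBlue measured on a microplate reader following 72 h incubation with drug. Each line was assayed at least twice.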

[2] = tested on: 501Mel-GP cells (Dabrafenib-resistant); conditions: 72 h; for cell viability (kinase inhibitor library screening): 501Mel GP
[3] = tested on: 501Mel-XP cells (Vemurafenib-resistant); conditions: 72 h; for cell viability (kinase inhibitor library screening): 501Mel XP
[4] = tested on: A375 cells (parental); conditions: for cell viability (kinase inhibitor library screening): A375 Parental, 72 h
[5] = tested on: A375-GP cells (Dabrafenib-resistant); conditions: for cell viability (kinase inhibitor library screening): A375 GP, 72 h
[6] = tested on: A375-XP cells (Vemurafenib-resistant); conditions: for cell viability (kinase inhibitor library screening): A375 XP, 72 h
[7] = tested on: IGR37 cells (parental); conditions: for cell viability (kinase inhibitor library screening): IGR37 Parental, 72 h
[8] = tested on: IGR37-GP cells (Dabrafenib-resistant); conditions: for cell viability (kinase inhibitor library screening): IGR37 GP, 72 h
[9] = tested on: IGR37-XP cells (Vemurafenib-resistant); conditions: for cell viability (kinase inhibitor library screening): IGR37 XP, 72 h

Compound | cell viability (kinase inhibitor library screening) ([1]; 1μΜ) [%] | cell viability (kinase inhibitor library screening) ([1]; 10μΜ) [%] | cell viability (kinase inhibitor library screening) ([2]; 1μΜ) [%] | cell viability (kinase inhibitor library screening) ([2]; 10μΜ) [%] | cell viability (kinase inhibitor library screening) ([3]; 1μΜ) [%] | cell viability (kinase inhibitor library screening) ([3]; 10μΜ) [%] | cell viability (kinase inhibitor library screening) ([4]; 10μΜ) [%] | cell viability (kinase inhibitor library screening) ([4]; 1μΜ) [%] | cell viability (kinase inhibitor library screening) ([5]; 1μΜ) [%] | cell viability (kinase inhibitor library screening) ([5]; 10μΜ) [%] | cell viability (kinase inhibitor library screening) ([6]; 1μΜ) [%] | cell viability (kinase inhibitor library screening) ([6]; 10μΜ) [%] | cell viability (kinase inhibitor library screening) ([7]; 1μΜ) [%] | cell viability (kinase inhibitor library screening) ([7]; 10μΜ) [%] | cell viability (kinase inhibitor library screening) ([8]; 1μΜ) [%] | cell viability (kinase inhibitor library screening) ([8]; 10μΜ) [%] | cell viability (kinase inhibitor library screening) ([9]; 1μΜ) [%] | cell viability (kinase inhibitor library screening) ([9]; 10μΜ) [%] | further results
CNC(=O)c1nn(C)c2c1C(C)(C)Cc1cnc(Nc3ccc(N4CCN(C)CC4)cc3)nc1-2 [PHA-848125] | 75.4 | 14.7 | 63.8 | 28.1 | 75.1 | 14.5 | 5.7 | 56.7 | 57.9 | 4.3 | 66.4 | 7.5 | 95.1 | 70.2 | 78.8 | 66.9 | 75.2 | 31.7 | –
C[C@H](NC(=O)/C(C#N)=C/c1cccc(Br)n1)c1ccccc1 [WP1066] | – | – | – | – | – | – | – | – | – | – | – | – | – | – | – | – | – | – | viability at 1 µM ([1]; Homo sapiens, read-out: cell viability, 501Mel Parental, 1μΜ): 96.9%; viability at 10 µM ([1]; Homo sapiens, read-out: cell viability, 501Mel Parental, 10μΜ): 0.369%; viability at 1 µM ([2]; Homo sapiens, read-out: cell viability, 501Mel GP, 1μΜ): 102%; viability at 10 µM ([2]; Homo sapiens, read-out: cell viability, 501Mel GP, 10μΜ): 1.2%; viability at 1 µM ([3]; Homo sapiens, read-out: cell viability, 501Mel XP, 1μΜ): 91.3%; viability at 10 µM ([3]; Homo sapiens, read-out: cell viability, 501Mel XP, 10μΜ): -0.0613%; viability at 1 µM ([4]; Homo sapiens, A-375, 72 h, read-out: cell viability, A375 Parental, 1μΜ): 106%; viability at 10 µM ([4]; Homo sapiens, A-375, 72 h, read-out: cell viability, A375 Parental, 10μΜ): 5.4%; viability at 1 µM ([5]; Homo sapiens, A-375, 72 h, read-out: cell viability, A375 GP, 1μΜ): 92.5%; viability at 10 µM ([5]; Homo sapiens, A-375, 72 h, read-out: cell viability, A375 GP, 10μΜ): 4.5%; viability at 1 µM ([6]; Homo sapiens, A-375, 72 h, read-out: cell viability, A375 XP, 1μΜ): 103%; viability at 10 µM ([6]; Homo sapiens, A-375, 72 h, read-out: cell viability, A375 XP, 10μΜ): 6.7%; viability at 1 µM ([7]; Homo sapiens, IGR-37, 72 h, read-out: cell viability, IGR37 Parental, 1μΜ): 110%; viability at 10 µM ([7]; Homo sapiens, IGR-37, 72 h, read-out: cell viability, IGR37 Parental, 10μΜ): 0.9%; viability at 1 µM ([8]; Homo sapiens, IGR-37, 72 h, read-out: cell viability, IGR37 GP, 1μΜ): 92.6%; viability at 10 µM ([8]; Homo sapiens, IGR-37, 72 h, read-out: cell viability, IGR37 GP, 10μΜ): 5.1%; viability at 1 µM ([9]; Homo sapiens, IGR-37, 72 h, read-out: cell viability, IGR37 XP, 1μΜ): 92.4%; viability at 10 µM ([9]; Homo sapiens, IGR-37, 72 h, read-out: cell viability, IGR37 XP, 10μΜ): 3.2%
CN(C[C@@H]1COCCO1)S(=O)(=O)Nc1ccc2ccc3ncc(-c4cnn(C)c4)cc3c(=O)c2c1 [MK-2461] | 102.9 | 83.3 | 90.6 | 45.5 | 77.5 | 30.0 | 78.1 | 106.3 | – | 78.6 | 106.1 | 88.4 | 103.2 | 84.5 | – | 28.3 | 99.3 | 6.5 | –
Cc1[nH]nc2ccc(-c3cncc(OC[C@@H](N)Cc4ccccc4)c3)cc12 [A-674563] | 73.1 | 1.4 | 64.5 | 0.638 | 56.5 | 0.5 | 4.6 | 82.1 | 63.4 | 2.7 | 54.3 | 6.6 | 96.7 | 1.9 | 99.0 | 2.8 | 78.0 | 2.1 | –
